Measurements: patent publication US7070983B2, “Mutant Pseudomonas putida strains and methods of use thereof” (priority 2003, dated 2006)

How the values were obtained:
Assay type in all cases: cell-based, Pseudomonas putida
parental strain KH146-2 = test: Antibiotic growth suppression on LB agar
Text: (§1) Spontaneous streptomycin-resistant (Str), gentamicin-resistant (Gen) or rifampicin-resistant (Rif) mutants were obtained from colonies that grew within 3 days after wild-type cells were spread on LB agar containing various concentrations of antibiotic.
We first isolated a number of spontaneous streptomycin-resistant (Str), gentamicin-resistant (Gen) and rifampicin-resistant (Rif) mutants of P. putida KH146-2. These mutants appeared at a frequency of 10^−5–10^−6 when KH146-2 cells were spread on LB agar containing various amounts of antibiotics. […] Forty mutants resistant to each antibiotic were randomly selected and examined for tolerance to 4-hydroxybenzoic acid (4HBA). 4HBA-tolerant strains, which could grow in the presence of 1% 4HBA, were detected among these antibiotic resistant mutants at a high frequency of 3 to 15% (Table 1). The highest frequency (15%) was detected in the mutants selected with 1000 μg ml^−1 of streptomycin. These 4HBA-tolerant isolates all grew as well as the parent strain on LB agar.

[1] = system: P. putida strain no. 12 (gen); test: Resistance level to antibiotic on LB agar; details: 1 days on LB agar
Text: as §1

[2] = system: P. putida strain no. 13 (gen); test: Resistance level to antibiotic on LB agar; details: 1 days on LB agar
Text: as §1

[3] = system: P. putida strain no. 11 (gen); test: Resistance level to antibiotic on LB agar; details: 1 days on LB agar
Text: as §1

[4] = system: P. putida strain no. 21 (rif-3); test: Resistance level to antibiotic on LB agar; details: 1 days on LB agar
Text: as §1

[5] = system: P. putida strain no. 20 (rif-5); test: Resistance level to antibiotic on LB agar; details: 1 days on LB agar
Text: as §1

[6] = system: P. putida strain no. 23 (rif-4); test: Resistance level to antibiotic on LB agar; details: 1 days on LB agar
Text: as §1

[7] = system: P. putida strain no. 22 (rif-3); test: Resistance level to antibiotic on LB agar; details: 1 days on LB agar
Text: as §1

[8] = system: P. putida strain no. 15 (rif-2); test: Resistance level to antibiotic on LB agar; details: 1 days on LB agar
Text: as §1

[9] = system: P. putida strain no. 18 (rif-4); test: Resistance level to antibiotic on LB agar; details: 1 days on LB agar
Text: as §1

[10] = system: P. putida strain no. 24 (rif-4); test: Resistance level to antibiotic on LB agar; details: 1 days on LB agar
Text: as §1

[11] = system: P. putida strain no. 17 (rif-3); test: Resistance level to antibiotic on LB agar; details: 1 days on LB agar
Text: as §1

[12] = system: P. putida strain no. 19 (rif-5); test: Resistance level to antibiotic on LB agar; details: 1 days on LB agar
Text: as §1

[13] = system: P. putida strain no. 14 (rif-1); test: Resistance level to antibiotic on LB agar; details: 1 days on LB agar
Text: as §1

[14] = system: strain no. 3 carrying plasmid pYI433 containing the wild-type rpsL gene; test: Complementation experiment, streptomycin resistance; details: strain no. 3 carrying pYI433; about the same as wild-type levels
Text: To clone the rpsL gene, a 0.9-kb DNA region covering whole rpsL was amplified from the chromosomal DNA of P. putida KH146-2 using KDO DNA polymerase (Toyobo Biochemicals, Osaka). Oligonucleotide primers were designed according to the rpoC-rpsL-rpsG sequence of P. putida KT2440 (www.tigr.org); 5′-[…]-3′ (SEQ ID NO:7—nucleotides [nt]−368 to −341 upstream of rpsL) and 5′-[…]-3′ (SEQ ID NO:8—complementary to nt 107 to 135 downstream of rpsL). The amplified DNA fragments were cloned into plasmid pUC118 (Vieira and Messing, (1987) Methods Enzymol 153: 3–11) to confirm the sequence, then excised from the plasmids as a BamHI-SphI fragment using the restriction sites in the multi-cloning sequence of the vector and inserted between the BglII and SphI sites of the E. coli-Pseudomonas shuttle vector pNIT6010 carrying tet^R, a derivative of pNIT6011 (Nishijyo et al. (2001) Mol Microbiol 40:917–931). The resultant plasmid pYI433, as well as vector control pNIT6010, was introduced into the Str mutant no. 3 (str-1) by conjugation using E. coli HB101/pRK2013 as the helper (Comai et al. (1983) Plasmid 10:21–30). Fifty μg ml^−1 of tetracycline was used for selection of transformants.
[…]

[15] = system: the eight Str mutants with increased tolerance to 4HBA; test: Resistance level to streptomycin, Str mutants as a group
Text: as §1
Streptomycin resistance frequently results from a mutation in the rpsL gene for the ribosomal protein S12 (Hosoya et al., ((1998) Antimirob Agents Chemother 42:204–2047); Inaoka et al., ((2001) J Bacteriol 183:4958–4963); Shima et al., ((1996) J Bacterial 178:7276–7284)). Rifampicin resistance results from a mutation in the rpoB gene (β-subunit of RNA polymerase) (Heep et al., ((1999) Antimicrob Agents Chemother 43:1497–1499); Jin and Gross, ((1988) J Mol Biol 202:45–58); Wichelhaus et al., ((1999) Antimicrob Agents Chemother 43:2813–2816); Hu et al., ((2002) J Bacteriol 184: 3984–3991)). We therefore sequenced and compared the rpsL gene and rpoB gene from the mutants to the wild-type strain.

[16] = system: P. putida strain no. 10 (str-1); test: Resistance level to antibiotic on LB agar; details: 1 days on LB agar
Text: as §1

[17] = system: P. putida strain no. 5 (str-1); test: Resistance level to antibiotic on LB agar; details: 1 days on LB agar
Text: as §1

[18] = system: P. putida strain no. 4 (str-1); test: Resistance level to antibiotic on LB agar; details: 1 days on LB agar
Text: as §1

[19] = system: P. putida strain no. 9 (str-2); test: Resistance level to antibiotic on LB agar; details: 1 days on LB agar
Text: as §1

[20] = system: P. putida strain no. 3 (str-1); test: Resistance level to antibiotic on LB agar; details: 1 days on LB agar
Text: as §1

[21] = system: P. putida strain no. 8 (str-1); test: Resistance level to antibiotic on LB agar; details: 1 days on LB agar
Text: as §1

[22] = system: P. putida strain no. 6 (str-1); test: Resistance level to antibiotic on LB agar; details: 1 days on LB agar
Text: as §1

[23] = system: P. putida strain no. 2 (str-1); test: Resistance level to antibiotic on LB agar; details: 1 days on LB agar
Text: as §1

Q: What does the source list for gentamicin?
A: Concentration completely suppressing growth (parental strain KH146-2): 12 µg/mL; Resistance level to antibiotic [1]: 50 (GEN) μg ml^−1; Resistance level to antibiotic [2]: 50 (GEN) μg ml^−1; Resistance level to antibiotic [3]: 50 (GEN) μg ml^−1

Q: For `CO[C@H]1/C=C/O[C@@]2(C)Oc3c(C)c(O)c4c(O)c(c(/C=N/N5CCN(C)CC5)c(O)c4c3C2=O)NC(=O)/C(C)=C\C=C\[C@H](C)[C@H](O)[C@@H](C)[C@@H](O)[C@@H](C)[C@H](OC(C)=O)[C@@H]1C` [rifampicin], which “Concentration completely suppressing growth” value (parental strain KH146-2) is on record?
A: 10 µg/mL

Q: And the “Resistance level to antibiotic” value [4]?
A: 500 (RIF) μg ml^−1

Q: What about the “Resistance level to antibiotic” value [5] of the same compound?
A: 500 (RIF) μg ml^−1

Q: What about the “Resistance level to antibiotic” value [6] of the same compound?
A: 500 (RIF) μg ml^−1

Q: And the “Resistance level to antibiotic” value [7]?
A: 500 (RIF) μg ml^−1

Q: And the “Resistance level to antibiotic” value [8]?
A: >500 (RIF) μg ml^−1

Q: What about the “Resistance level to antibiotic” value [9] of the same compound?
A: 500 (RIF) μg ml^−1

Q: What about the “Resistance level to antibiotic” value [10] of the same compound?
A: 500 (RIF) μg ml^−1

Q: And the “Resistance level to antibiotic” value [11]?
A: 500 (RIF) μg ml^−1

Q: And the “Resistance level to antibiotic” value [12]?
A: 500 (RIF) μg ml^−1

Q: And the “Resistance level to antibiotic” value [13]?
A: >500 (RIF) μg ml^−1

Q: How did the “Concentration completely suppressing growth” value (parental strain KH146-2) turn out when `[H]/N=C(/N)N[C@H]1[C@H](O)[C@@H](O)[C@H](O[C@@H]2O[C@@H](C)[C@](O)(C=O)[C@H]2O[C@@H]2O[C@@H](CO)[C@H](O)[C@@H](O)[C@@H]2NC)[C@@H](N/C(N)=N\[H])[C@@H]1O` [streptomycin] was run?
A: 100 µg/mL

Q: And the “levels of Str (streptomycin resistance)” value [14]?
A: 100 to 200 µg/mL

Q: What about the “level of resistance to streptomycin” value [15] of the same compound?
A: > 100 mg/mL

Q: And the “resistance compared to the wild-type strain” value [15]?
A: > 1000 fold

Q: What about the “Resistance level to antibiotic” value [16] of the same compound?
A: >100,000 (STR) μg ml^−1

Q: And the “Resistance level to antibiotic” value [17]?
A: >100,000 (STR) μg ml^−1

Q: And the “Resistance level to antibiotic” value [18]?
A: >100,000 (STR) μg ml^−1

Q: What about the “Resistance level to antibiotic” value [19] of the same compound?
A: >100,000 (STR) μg ml^−1

Q: What about the “Resistance level to antibiotic” value [20] of the same compound?
A: >100,000 (STR) μg ml^−1

Q: And the “Resistance level to antibiotic” value [21]?
A: >100,000 (STR) μg ml^−1

Q: What about the “Resistance level to antibiotic” value [22] of the same compound?
A: >100,000 (STR) μg ml^−1

Q: What about the “Resistance level to antibiotic” value [23] of the same compound?
A: >100,000 (STR) μg ml^−1
